According to the METLIN SMRT retention time set (Domingo-Almenara et al. 2019):

Assay: gradient 5% acetonitrile 3 min, to 50% in 2 min, to 85% in 15 min, held 3 min, 100 µL/min
Conditions: column: Zorbax Extend-C18 2.1 x 50 mm; eluents: water / acetonitrile, 0.1% formic acid
Procedure, shortened: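 Values are retention times taken from adduct peaks that software picked and an analyst inspected. The pure standards were run as mixtures of ~100 molecules on HPLC linked to a quadrupole time-of-flight mass spectrometer, in positive and negative ionization mode. A Zorbax Extend-C18 column (2.1 × 50 mm, 1.8 μm) was used at 100 μL/min with water and acetonitrile, each including 0.1% formic acid.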

Compared with CC(C)c1ccc(S(=O)(=O)N2CCC3(CC2)c2nccn2CCN3C)cc1, Cc1nc(-c2cc(S(=O)(=O)N3CCN(c4cccc(C)c4C)CC3)c(C)s2)cs1 is higher in RP-LC retention time: 720 s for the first, 1370 s for the second.

Compared with COc1ccc(OC)c(NC(=O)C2c3cc(OC)c(OC)cc3C(=O)N(C)C2c2cccnc2)c1 (centres undefined), COc1cc(OC)c(NC(=O)Cn2cccc2-c2nc(-c3ccc4c(c3)OCO4)no2)cc1Cl is higher in RP-LC retention time: 605 s for the first, 1110 s for the second.

First: CCc1nc2cc(N3CCC(C(=O)NCCN4CCCCC4)CC3)cnc2nc1CC
Second: CCc1nc(-c2csc(S(=O)(=O)N3CCC(C(=O)NC4CCCCC4)CC3)c2)no1
The RP-LC retention time of the first is lower: 580 s for the first, 955 s for the second.

First: CCOC(=O)c1c(S(=O)(=O)N2CCC(C(=O)Nc3nc(C)cs3)CC2)c(C)n(C)c1C
Second: Cc1c(NC(=O)C2CCN(S(=O)(=O)Cc3ccccc3)CC2)c(=O)n(-c2ccccc2)n1C
The RP-LC retention time of the first is higher: 780 s for the first, 672 s for the second.

Compared with Cc1ccc2nc(C(=O)NCc3ccc(N(C)C)cc3)cn2c1, COc1ccc2nc(C(=O)NCc3ccc(Cl)cc3)cn2n1 is higher in RP-LC retention time: 565 s for the first, 830 s for the second.

First: CCc1ccc(NC(=O)Cn2nc3c(N(C)C4CCCCC4)nccn3c2=O)cc1
Second: CCCNc1cc(N2CCC(CCC(=O)Nc3ccc(OCC)cc3)CC2)ncn1
The RP-LC retention time of the first is higher: 823 s for the first, 736 s for the second.

First: CCOc1ccccc1-c1noc(-c2cn(C)c3ccc(F)cc3c2=O)n1
Second: CCn1c(=O)c2ccccc2n(Cc2nc(-c3ccc(F)c(Br)c3)no2)c1=O
The RP-LC retention time of the first is lower: 833 s for the first, 1120 s for the second.

Going from O=C(NCc1cccc(Br)c1)c1ccc2ncnc(N3CCCC3)c2c1 to CN1c2cc(Cl)ccc2C(=O)NC12CCN(C(=O)NCc1cccc(F)c1)CC2, the RP-LC retention time rises from 679 s to 1010 s.

Going from O=C(CCC1CCCN(c2cc(NC3CC3)ncn2)C1)NCCc1ccncc1 (centres undefined) to CCc1cccc(NC(=O)N2CCC(n3cnnc3C3CC3)C2)c1 (centres undefined), the RP-LC retention time rises from 564 s to 667 s.

Going from COc1ccc(-n2c(=O)c(C(=O)NCC(C)C)c(O)c3cccnc32)cc1 to COc1ccc(NC(=O)N2CCC(n3c(CC(C)C)nc4cccnc43)CC2)c(OC)c1, the RP-LC retention time falls from 1160 s to 676 s.

First: Cc1nc(-c2cc3ccccc3nc2N2CCN(C(=O)Cc3ccccc3)CC2)no1
Second: CCN(CC)c1nc2cc(C(=O)N3CCN(c4ccccn4)CC3)ccc2c(=O)n1-c1ccccc1
The RP-LC retention time of the first is higher: 934 s for the first, 693 s for the second.

First: O=C(CC1(O)C(=O)Nc2c(Cl)cc(Cl)cc21)c1cccc2ccccc12 (centres undefined)
Second: CCC(=O)c1cn(CC(=O)NCc2ccc3c(c2)OCCCO3)c2ccccc12
The RP-LC retention time of the first is higher: 862 s for the first, 794 s for the second.

Compared with CCCN1CCN(C(=O)Cc2ccc3nc(NC(C)=O)sc3c2)CC1, Cc1ccc(-c2cn3c(CC(=O)N4CCN(c5cc(Cl)ccc5C)CC4)csc3n2)cc1C is higher in RP-LC retention time: 578 s for the first, 1130 s for the second.

First: CCn1c(CCNC(=O)c2ccc(F)c(Cl)c2)nc2cccnc21
Second: CCn1cc(-c2nc(C)c(C(=O)NCc3cccs3)s2)c2cccnc21
The RP-LC retention time of the first is lower: 676 s for the first, 926 s for the second.

Going from Cn1nc(C(=O)N2CCCC2)c2c1CCN(C(=O)CCC(=O)N1CCCCCC1)C2 to O=C(c1cn(-c2cc(N3CCCCC3)ncn2)cn1)N1CCSCC1, the RP-LC retention time rises from 664 s to 789 s.

First: O=C1N(c2cccc(F)c2)C(c2ccccc2)C12CCNCC2 (centres undefined)
Second: Cc1ccc(-c2nnc(-c3ccccc3)o2)cc1S(=O)(=O)N1CCC(C)CC1
The RP-LC retention time of the first is lower: 669 s for the first, 1210 s for the second.

First: Cc1nc2c(c(=O)n1CC(=O)NCc1cccs1)CCN(Cc1ccccc1)C2
Second: CC1CCN(c2nn(CC(=O)NC3CCc4ccccc43)c(=O)c3ccccc23)CC1 (centres undefined)
The RP-LC retention time of the first is lower: 608 s for the first, 1140 s for the second.

Compared with CCCC(NC(=O)c1ccc(OCC)c(OCC)c1)C(=O)Nc1nc2ccccc2[nH]1 (centres undefined), CCOc1cc(CNC(=O)C2CCCN(C(=O)c3[nH]c(C)cc3C)C2)cc(OCC)c1OCC (centres undefined) is higher in RP-LC retention time: 733 s for the first, 876 s for the second.

Going from Cc1[nH]c(C(=O)N2CCCC(C(=O)NCc3ccc(OC(C)C)cc3)C2)c(C)c1C(=O)OC(C)C (centres undefined) to CC(C)NC(=O)C1CCCN(C(=O)Nc2ccc(NC(=O)Nc3ccc(F)cc3)cc2)C1 (centres undefined), the RP-LC retention time falls from 929 s to 714 s.

Compared with CC(C)OCCCNC(=O)c1cc2c(n(-c3ccc(C(C)C)cc3)c1=O)CCCC2=O, Cc1cc(C)cc(N2CCC(NC(=O)Cc3ccc(F)cc3)C2=O)c1 (centres undefined) is lower in RP-LC retention time: 989 s for the first, 864 s for the second.

Going from O=C(CCSc1ccccc1)Nc1cccc2ccc(-n3ccnc3)nc12 to O=C(Cc1nnc(-c2ccc3ncccc3c2)o1)Nc1ccc(OC(F)(F)F)cc1, the RP-LC retention time rises from 648 s to 806 s.

Going from Cc1cn(C)c(CC(=O)NCCCN2CCOCC2)c1C(=O)O to CC(=O)N1CCC2(CC1)OC(=O)C(C)=C2C(=O)NCc1ccccc1Br, the RP-LC retention time rises from 571 s to 721 s.

First: CCc1noc(-c2ccc(SCC(=O)N3CCCCCC3)nc2)n1
Second: Cc1nn(CC(=O)N2CCCCC2)c(=O)c2c(-n3cccc3)n(-c3ccc(F)cc3)nc12
The RP-LC retention time of the first is higher: 939 s for the first, 923 s for the second.

First: CNC(=O)[C@@H]1CN(C(=O)CCc2nc3ccccc3s2)C[C@H]1c1n[nH]c(C)n1
Second: COc1ccc(-c2cc(N3CCC(NC(=O)c4ccccc4Br)C3)n[nH]2)cc1 (centres undefined)
The RP-LC retention time of the first is lower: 607 s for the first, 688 s for the second.

Going from Cc1ccc(NC(=O)Cc2c(C)nn(-c3nc(-c4ccc(Cl)cc4)cs3)c2C)cc1C to Cc1ccc(S(=O)(=O)n2nc(OC(=O)c3ccc(Cl)cc3Cl)cc2N)cc1, the RP-LC retention time rises from 852 s to 1030 s.

Going from COc1ccc(-c2nnc(COc3ccc(NC(=O)C4CCC4)cc3)o2)cc1 to CCOc1ccc(C(=O)N2CCC3(CC2)N=C(c2ccc(Cl)cc2)NO3)cc1, the RP-LC retention time rises from 826 s to 922 s.

First: CN1C(=O)[C@H]2CN(Cc3ccc(F)c(F)c3)C[C@H]2C1=O
Second: COc1cccc(CN2CC=C(C(=O)N3CCN(c4ccccc4OC)CC3)CC2)c1
The RP-LC retention time of the first is lower: 590 s for the first, 651 s for the second.

First: COc1ccc(OC)c2sc(NC(=O)c3cc(Cl)sc3Cl)nc12
Second: COc1cccc(OC)c1C(=O)Nc1nc2c(s1)CCc1ccccc1-2
The RP-LC retention time of the first is higher: 1010 s for the first, 1000 s for the second.

First: Cc1cc(N2CCN(C(=O)Nc3ccccc3F)CC2)nc(N2CCCC2)n1
Second: Cc1ccn2cc(C(=O)NCc3ccccc3F)nc2c1
The RP-LC retention time of the first is lower: 626 s for the first, 628 s for the second.

First: Cc1cccc(NC(=O)N2[C@H]3CC[C@@H]2c2cnc(C)nc2C3)c1
Second: O=C(NC1CCN(C(=O)c2cn(-c3ccc(Cl)cc3)nn2)CC1)c1cccs1
The RP-LC retention time of the first is higher: 663 s for the first, 628 s for the second.

Compared with COc1cc(CNC(=O)c2nc(CCS(=O)(=O)c3ccc(F)cc3)no2)cc(OC)c1OC, CCOC(=O)C1=C(C)NC2=C(C(=O)C(C(=O)OC)C(C)C2)C1c1ccc(F)cc1 (centres undefined) is higher in RP-LC retention time: 788 s for the first, 870 s for the second.

First: CC1CCN(S(=O)(=O)c2ccc3c(c2)CCCC(=O)N3CC(=O)N2CCOCC2)CC1
Second: C=C(C)CN1CC[C@]23c4c5ccc(O)c4O[C@H]2c2[nH]c4ccccc4c2C[C@@]3(O)C1C5
The RP-LC retention time of the first is higher: 768 s for the first, 703 s for the second.
